Assay results from patent EP0414533A1, “Use of iodopropargyl esters of alpha-amino acid derivatives as antimicrobial agents” (ROHM AND HAAS COMPANY, priority 1989, dated 1991).
Values after ≈ are worked out from the molar mass of the structure shown. Read-outs that look alike come from different tables or passages of the source.

Tests used:
Assay type in all cases: cell-based
Fusarium roseum (FUS) = experiment: In-vitro plant fungicide test; conditions: Fusarium sambucinum
[1] = tested on: Cochliobolus sativus (HEL); experiment: In-vitro plant fungicide test; conditions: Bipolaris sorokiniana
THREE FUNGI = experiment: MIC test against three fungi in Mycophile Broth, pH 5.0, read after 8 days (Table VII); conditions: 192 h, serial dilutions from 50 ppm, read after 8 days of incubation
Pythium ultimum (PYU) = experiment: In-vitro plant fungicide test; conditions: Globisporangium ultimum
ALT = experiment: In-vitro plant fungicide test; conditions: Table IVb, read-out: % Control at (ppm) indicated ALT
Botrytis cinerea (BOC) = experiment: In-vitro plant fungicide test; conditions: Botrytis cinerea
[2] = tested on: Xanthomonas campestris (XAN); experiment: In-vitro plant fungicide test; set-up: inhibition of growth: concentration or dose not given beside the values; conditions: Xanthomonas campestris
COL = experiment: In-vitro plant fungicide test; conditions: Table IVb, read-out: % Control at (ppm) indicated COL
PSH = experiment: In-vitro plant fungicide test; conditions: Table IVb, read-out: % Control at (ppm) indicated PSH
[3] = tested on: Phytophthora capsici (PHY); experiment: In-vitro plant fungicide test; conditions: Phytophthora capsici
Septoria nodorum (SEP) = experiment: In-vitro plant fungicide test; conditions: Parastagonospora nodorum
MON = experiment: In-vitro plant fungicide test; conditions: Table IVb, read-out: % Control at (ppm) indicated MON
UST = experiment: In-vitro plant fungicide test; conditions: Table IVb, read-out: % Control at (ppm) indicated UST
CER = experiment: In-vitro plant fungicide test; conditions: Table IVb, read-out: % Control at (ppm) indicated CER
[4] = Table IVb, read-out: % Control at (ppm) indicated XAN

## CC(C)(C)OC(=O)NCC(=O)OCC#CI [Compound 1, N-t-butoxycarbonylglycine iodopropargyl ester]
Fusarium roseum (FUS); read-out: % Control at 25 ppm FUS, 25 ppm, Table IVa, *=Phytotoxic
  inhibition of growth at 25 ppm: 100%
Fusarium roseum (FUS); read-out: % Control at (ppm) indicated FUS, 1.5 ppm, Table IVb
  inhibition of growth at 1.5 ppm: 0%
Fusarium roseum (FUS); read-out: % Control at (ppm) indicated FUS, 3 ppm, Table IVb
  inhibition of growth at 3 ppm: 75%
Fusarium roseum (FUS); read-out: % Control at (ppm) indicated FUS, 6 ppm, Table IVb
  inhibition of growth at 6 ppm: 100%
Fusarium roseum (FUS); read-out: % Control at (ppm) indicated FUS, 12 ppm, Table IVb
  inhibition of growth at 12 ppm: 100%
Fusarium roseum (FUS); read-out: % Control at (ppm) indicated FUS, 25 ppm, Table IVb
  inhibition of growth at 25 ppm: 100%
Fusarium roseum (FUS); read-out: % Control at (ppm) indicated FUS, .2 ppm, Table IVb
  inhibition of growth at 0.2 ppm: 0%
Fusarium roseum (FUS); read-out: % Control at (ppm) indicated FUS, .4 ppm, Table IVb
  inhibition of growth at 0.4 ppm: 0%
Fusarium roseum (FUS); read-out: % Control at (ppm) indicated FUS, .8 ppm, Table IVb
  inhibition of growth at 0.8 ppm: 0%
[1]; 1.5 ppm, Table IVb, read-out: % Control at (ppm) indicated HEL
  inhibition of growth at 1.5 ppm: 0%
[1]; 6 ppm, Table IVb, read-out: % Control at (ppm) indicated HEL
  inhibition of growth at 6 ppm: 75%
[1]; Table IVa, *=Phytotoxic, read-out: % Control at 25 ppm HEL
  inhibition of growth at 25 ppm: 100%
[1]; Table IVb, read-out: % Control at (ppm) indicated HEL
  inhibition of growth at 25 ppm: 100%
[1]; .2 ppm, Table IVb, read-out: % Control at (ppm) indicated HEL
  inhibition of growth at 0.2 ppm: 0%
[1]; .4 ppm, Table IVb, read-out: % Control at (ppm) indicated HEL
  inhibition of growth at 0.4 ppm: 0%
[1]; .8 ppm, Table IVb, read-out: % Control at (ppm) indicated HEL
  inhibition of growth at 0.8 ppm: 0%
THREE FUNGI; Aspergillus niger, read-out: MIC ANIG
  MIC: 3.2 µg/mL (≈ 9.44 µM)
THREE FUNGI; Aureobasidium pullulans, read-out: MIC APUL
  MIC: 12.5 µg/mL (≈ 36.9 µM)
THREE FUNGI; Gloeophyllum trabeum, read-out: MIC GTRA
  MIC: 1.6 µg/mL (≈ 4.72 µM)
Pythium ultimum (PYU); 1.5 ppm, Table IVb, read-out: % Control at (ppm) indicated PYU
  inhibition of growth at 1.5 ppm: 100%
Pythium ultimum (PYU); 6 ppm, Table IVb, read-out: % Control at (ppm) indicated PYU
  inhibition of growth at 6 ppm: 100%
Pythium ultimum (PYU); Table IVa, read-out: % Control at 25 ppm PYU
  inhibition of growth at 25 ppm: 100%
Pythium ultimum (PYU); Table IVb, read-out: % Control at (ppm) indicated PYU
  inhibition of growth at 25 ppm: 100%
Pythium ultimum (PYU); .2 ppm, Table IVb, read-out: % Control at (ppm) indicated PYU
  inhibition of growth at 0.2 ppm: 0%
Pythium ultimum (PYU); .4 ppm, Table IVb, read-out: % Control at (ppm) indicated PYU
  inhibition of growth at 0.4 ppm: 0%
Pythium ultimum (PYU); .8 ppm, Table IVb, read-out: % Control at (ppm) indicated PYU
  inhibition of growth at 0.8 ppm: 0%
ALT; 1.5 ppm
  inhibition of growth at 1.5 ppm: 0%
ALT; 3 ppm
  inhibition of growth at 3 ppm: 50%
ALT; 6 ppm
  inhibition of growth at 6 ppm: 50%
ALT; 12 ppm
  inhibition of growth at 12 ppm: 100%
ALT; 25 ppm
  inhibition of growth at 25 ppm: 100%
ALT; .2 ppm
  inhibition of growth at 0.2 ppm: 0%
ALT; .4 ppm
  inhibition of growth at 0.4 ppm: 0%
ALT; .8 ppm
  inhibition of growth at 0.8 ppm: 0%
Botrytis cinerea (BOC); 1.5 ppm, Table IVb, read-out: % Control at (ppm) indicated BOC
  inhibition of growth at 1.5 ppm: 0%
Botrytis cinerea (BOC); 6 ppm, Table IVb, read-out: % Control at (ppm) indicated BOC
  inhibition of growth at 6 ppm: 0%
Botrytis cinerea (BOC); Table IVa, *=Phytotoxic, read-out: % Control at 25 ppm BOC
  inhibition of growth at 25 ppm: 100%
Botrytis cinerea (BOC); Table IVb, read-out: % Control at (ppm) indicated BOC
  inhibition of growth at 25 ppm: 100%
Botrytis cinerea (BOC); .2 ppm, Table IVb, read-out: % Control at (ppm) indicated BOC
  inhibition of growth at 0.2 ppm: 0%
Botrytis cinerea (BOC); .4 ppm, Table IVb, read-out: % Control at (ppm) indicated BOC
  inhibition of growth at 0.4 ppm: 0%
Botrytis cinerea (BOC); .8 ppm, Table IVb, read-out: % Control at (ppm) indicated BOC
  inhibition of growth at 0.8 ppm: 0%
[2]; 1.5 ppm, Table IVb, read-out: % Control at (ppm) indicated XAN
  inhibition of growth at 1.5 ppm: 0%
[2]; 3 ppm, Table IVb, read-out: % Control at (ppm) indicated XAN
  inhibition of growth at 3 ppm: 0%
[2]; 6 ppm, Table IVb, read-out: % Control at (ppm) indicated XAN
  inhibition of growth at 6 ppm: 0%
[2]; Table IVa, read-out: % Control at 25 ppm XAN
  inhibition of growth at 25 ppm: 0%
[2]; [4]
  inhibition of growth at 25 ppm: 0%
  inhibition of growth: 0%
[2]; .2 ppm, Table IVb, read-out: % Control at (ppm) indicated XAN
  inhibition of growth at 0.2 ppm: 0%
[2]; .4 ppm, Table IVb, read-out: % Control at (ppm) indicated XAN
  inhibition of growth at 0.4 ppm: 0%
[2]; .8 ppm, Table IVb, read-out: % Control at (ppm) indicated XAN
  inhibition of growth at 0.8 ppm: 0%
COL; 1.5 ppm
  inhibition of growth at 1.5 ppm: 0%
COL; 3 ppm
  inhibition of growth at 3 ppm: 0%
COL; 6 ppm
  inhibition of growth at 6 ppm: 0%
COL; 12 ppm
  inhibition of growth at 12 ppm: 95%
COL; 25 ppm
  inhibition of growth at 25 ppm: 95%
COL; .2 ppm
  inhibition of growth at 0.2 ppm: 0%
COL; .4 ppm
  inhibition of growth at 0.4 ppm: 0%
COL; .8 ppm
  inhibition of growth at 0.8 ppm: 0%
PSH; 1.5 ppm
  inhibition of growth at 1.5 ppm: 100%
PSH; 6 ppm
  inhibition of growth at 6 ppm: 100%
PSH; 25 ppm
  inhibition of growth at 25 ppm: 100%
PSH; .2 ppm
  inhibition of growth at 0.2 ppm: 0%
PSH; .4 ppm
  inhibition of growth at 0.4 ppm: 0%
PSH; .8 ppm
  inhibition of growth at 0.8 ppm: 75%
[3]; 1.5 ppm, Table IVb, read-out: % Control at (ppm) indicated PHY
  inhibition of growth at 1.5 ppm: 50%
[3]; 6 ppm, Table IVb, read-out: % Control at (ppm) indicated PHY
  inhibition of growth at 6 ppm: 100%
[3]; Table IVa, read-out: % Control at 25 ppm PHY
  inhibition of growth at 25 ppm: 100%
[3]; Table IVb, read-out: % Control at (ppm) indicated PHY
  inhibition of growth at 25 ppm: 100%
[3]; .2 ppm, Table IVb, read-out: % Control at (ppm) indicated PHY
  inhibition of growth at 0.2 ppm: 0%
[3]; .4 ppm, Table IVb, read-out: % Control at (ppm) indicated PHY
  inhibition of growth at 0.4 ppm: 0%
[3]; .8 ppm, Table IVb, read-out: % Control at (ppm) indicated PHY
  inhibition of growth at 0.8 ppm: 0%
Septoria nodorum (SEP); 1.5 ppm, Table IVb, read-out: % Control at (ppm) indicated SEP
  inhibition of growth at 1.5 ppm: 0%
Septoria nodorum (SEP); 6 ppm, Table IVb, read-out: % Control at (ppm) indicated SEP
  inhibition of growth at 6 ppm: 100%
Septoria nodorum (SEP); Table IVa, read-out: % Control at 25 ppm SEP
  inhibition of growth at 25 ppm: 100%
Septoria nodorum (SEP); Table IVb, read-out: % Control at (ppm) indicated SEP
  inhibition of growth at 25 ppm: 100%
Septoria nodorum (SEP); .2 ppm, Table IVb, read-out: % Control at (ppm) indicated SEP
  inhibition of growth at 0.2 ppm: 0%
Septoria nodorum (SEP); .4 ppm, Table IVb, read-out: % Control at (ppm) indicated SEP
  inhibition of growth at 0.4 ppm: 0%
Septoria nodorum (SEP); .8 ppm, Table IVb, read-out: % Control at (ppm) indicated SEP
  inhibition of growth at 0.8 ppm: 0%
MON; 1.5 ppm
  inhibition of growth at 1.5 ppm: 75%
MON; 6 ppm
  inhibition of growth at 6 ppm: 100%
MON; 25 ppm
  inhibition of growth at 25 ppm: 100%
MON; .2 ppm
  inhibition of growth at 0.2 ppm: 0%
MON; .4 ppm
  inhibition of growth at 0.4 ppm: 0%
MON; .8 ppm
  inhibition of growth at 0.8 ppm: 0%
UST; 1.5 ppm
  inhibition of growth at 1.5 ppm: 100%
UST; 3 ppm
  inhibition of growth at 3 ppm: 100%
UST; 6 ppm
  inhibition of growth at 6 ppm: 100%
UST; 12 ppm
  inhibition of growth at 12 ppm: 100%
UST; 25 ppm
  inhibition of growth at 25 ppm: 100%
UST; .2 ppm
  inhibition of growth at 0.2 ppm: 0%
UST; .4 ppm
  inhibition of growth at 0.4 ppm: 0%
UST; .8 ppm
  inhibition of growth at 0.8 ppm: 50%
CER; 1.5 ppm
  inhibition of growth at 1.5 ppm: 0%
CER; 6 ppm
  inhibition of growth at 6 ppm: 100%
CER; 25 ppm
  inhibition of growth at 25 ppm: 100%
CER; .2 ppm
  inhibition of growth at 0.2 ppm: 0%
CER; .4 ppm
  inhibition of growth at 0.4 ppm: 0%
CER; .8 ppm
  inhibition of growth at 0.8 ppm: 0%
